{"source": "paper PMC6276509", "about": "“Evaluation of Tyrosinase Inhibitory, Antioxidant, Antimicrobial, and Antiaging Activities of Magnolia officinalis Extracts after Aspergillus niger Fermentation” (BioMed Research International, 2018)", "target": "T1, Mushroom tyrosinase", "T1 construct": "gene PPO3; commercial native mushroom tyrosinase (Sigma), isoenzyme mixture", "assay": "absorbance at […] nm, […] min", "assay_type": "biochemical", "settings": "L-tyrosine substrate (1 mL of 100 mg/L); sodium phosphate buffer; DMSO stock; alpha or beta anomer not stated", "data": [{"smiles": "OC[C@H]1O[C@@H](Oc2ccc(O)cc2)[C@H](O)[C@@H](O)[C@@H]1O", "note": "[arbutin]", "values": [{"measurement": "IC50", "value": "56 ± 12", "unit": "µg/mL"}]}]}
